According to patent publication US7553832B2, “Methods and compositions for specific inhibition of protein splicing by small molecules” (Boston Biomedical Research Institute, priority 2005, dated 2009):

Molecular target: T1, M. tuberculosis DnaB intein (Mycobacterium tuberculosis, UniProt P9WMR3)
T1 sequence (P9WMR3 400-815 limits assumed): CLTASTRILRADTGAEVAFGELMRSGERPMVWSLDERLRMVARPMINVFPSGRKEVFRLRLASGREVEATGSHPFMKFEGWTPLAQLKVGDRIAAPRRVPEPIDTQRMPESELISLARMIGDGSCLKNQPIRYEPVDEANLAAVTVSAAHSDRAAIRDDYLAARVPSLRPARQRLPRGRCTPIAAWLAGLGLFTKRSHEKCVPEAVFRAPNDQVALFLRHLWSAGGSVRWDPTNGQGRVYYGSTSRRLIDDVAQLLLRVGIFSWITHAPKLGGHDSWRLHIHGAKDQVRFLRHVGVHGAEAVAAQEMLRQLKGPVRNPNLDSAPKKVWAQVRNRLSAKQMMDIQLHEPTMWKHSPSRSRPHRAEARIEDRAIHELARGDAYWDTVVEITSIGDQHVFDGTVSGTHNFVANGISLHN
Test: biochemical
Format: biochemical

Row | Compound | IC50 [µM]
1 | CC1(C)CC(=O)c2c(S(C)(=O)=O)sc(C(=O)OCc3ccccc3)c2C1 [Compound 30] | < 5
2 | C=CCn1c(Sc2ncnc3c2sc(=S)n3CC=C)nnc1-c1ccccc1 [Compound 27] | < 5
3 | COc1cccc(N(NC(=O)C(O)(c2cccc(C(F)(F)F)c2)c2cccc(C(F)(F)F)c2)C(=O)CCl)c1 [Compound 51] | < 5
4 | CC1(C)CC(=O)C2(C(=O)C1)C(c1ccc(Cl)cc1Cl)C2(C#N)C#N (stereo not shown) [Compound 37] | < 5
5 | O=S(=O)(c1ccc(Br)cc1)c1snnc1-c1ccccc1 [Compound 6] | 13
6 | O=C(Nn1c(C2CCCCC2)nc2ccccc2c1=O)c1cc([N+](=O)[O-])cc([N+](=O)[O-])c1Cl [Compound 53] | < 5
7 | CCCN(CCC)S(=O)(=O)c1ccc(C(=O)SCC(=O)OCC)cc1 [Compound 2] | 13
8 | [O-][S+](c1ccc(C(F)(F)F)cc1)c1cnn2c(Cl)nnc2c1 (stereo not shown) [Compound 45] | < 5
9 | O=C(Oc1ccc(Cl)cc1)c1snnc1-c1ccccc1 [Compound 23] | < 5
10 | N#CC1(C#N)C(c2cccc(I)c2)C(C(N)=O)N2C=Cc3ccccc3C21 (stereo not shown) [Compound 17] | 15
11 | O=C(Nc1ccccc1)c1nnsc1S(=O)(=O)c1ccc(Cl)cc1 [Compound 10] | 7
12 | Cc1cc(S(=O)(=O)c2ccc(C(F)(F)F)cc2[N+](=O)[O-])c(Cl)cc1Cl [Compound 66] | < 5
13 | O=C(CCl)N1CCN2C(=O)c3ccccc3C12c1ccc(Cl)cc1 (stereo not shown) [Compound 13] | 8
14 | O=S(=O)(c1cccc(C(F)(F)F)c1)c1snnc1-c1ccccc1 [Compound 35] | < 5
15 | CCOC(=O)c1cc(C#N)c(Sc2nnc(SC)s2)nc1C(F)(F)F [Compound 72] | < 5
16 | N#CCSc1ccc(C#N)cc1 [Compound 24] | 12
17 | N#CC1(C#N)C(c2ccccc2Cl)C1(C#N)C#N [Compound 21] | 15
18 | O=C(c1c[nH]c(C(=O)C(Cl)(Cl)Cl)c1)c1cccc(Cl)c1Cl [Compound 59] | < 5
19 | CCOC(=O)CSc1nc2c(c(-c3cccs3)c1C#N)CN(C)CC2 [Compound 56] | 10

Row | Compound | IC50 [µM]
20 | Oc1ccc(Br)cc1CNc1cccc(C(F)(F)F)c1 [Compound 70] | 5
21 | O=C(c1nnsc1[S+]([O-])c1ccc(Cl)cc1)N1CCCCC1 (stereo not shown) [Compound 11] | 8
22 | Oc1cc2c(cc1C(c1ccc(C(F)(F)F)cc1)N1CCOCC1)OCO2 (stereo not shown) [Compound 69] | 37
23 | Cc1cc(Oc2c([N+](=O)[O-])cc(C(F)(F)F)cc2[N+](=O)[O-])ccc1Cl [Compound 64] | < 5
24 | CCOC(=O)c1nnc(-c2ccccc2)nc1Sc1ccccc1C(=O)OC [Compound 41] | < 5
25 | O=C(OCn1ncc(Cl)c(Cl)c1=O)c1cccc(C(F)(F)F)c1 [Compound 38] | < 5
26 | CS(=O)(=O)c1cc(C(F)(F)F)cc(S(C)(=O)=O)c1S(C)(=O)=O [Compound 3] | 17
27 | CCOC(=O)c1cc(C#N)c(Sc2nnc(SCC3CC3)s2)nc1C(F)(F)F [Compound 71] | < 5
28 | O=[N+]([O-])c1cc(C(F)(F)F)cc([N+](=O)[O-])c1Sc1nc2ccccc2[nH]1 [Compound 55] | 7
29 | Oc1cc2c(cc1C(c1ccc(Cl)c(Cl)c1)N1CCCC1)OCO2 (stereo not shown) [Compound 1] | 30
30 | COC(=O)c1sc(S(C)(=O)=O)c(C#N)c1-c1cc(C(C)(C)C)oc1C [Compound 33] | < 5
31 | O=C(Sc1ccccc1)c1ccc2ncsc2c1 [Compound 68] | 9
32 | O=S(=O)(c1ccc(Cl)c(Cl)c1)c1snnc1-c1ccccc1 [Compound 7] | 6
33 | N#CC(N)=C(C#N)NCc1ccccc1Sc1ccc(Cl)cc1 [Compound 29] | < 5
34 | Oc1cc(OCc2ccc(C(F)(F)F)cc2)ccc1-c1cc[nH]n1 [Compound 44] | < 5
35 | COc1ccc(NC(=O)C(Cl)=C(Cl)[S+]([O-])Cc2ccc(C)cc2)cn1 (stereo not shown) [Compound 43] | < 5
36 | Cn1cc(C(=O)c2cccc(Cl)c2Cl)cc1C(=O)C(Cl)(Cl)Cl [Compound 40] | < 5
37 | COc1ccc(NC(=O)C(Cl)=C(Cl)[S+]([O-])Cc2ccccc2)cn1 (stereo not shown) [Compound 9] | 7
